Here are results for three compounds from patent EP0066934A1, “Nitrofurantoin salts, their preparation and their use” ("PHARLYSE", Société Anonyme, priority 1981, dated 1982).

The LD50 is the dose expected to kill half of the subjects tested. Low readings indicate a more toxic substance, high ones a less toxic substance.

The conditions of series [1]: aqueous solution; cited from earlier work.
The conditions of series [2]: water, 25°C; cited from earlier work.
For series [3] the following is noted: 10% solution in water. The protocol: On refroidit à O°C une solution de 11,68 g de lysine base dans 190 ml d'eau. A cette solution limpide, on ajoute par petites portions et sous agitation 10,47 g de nitrofurantoïne. Quelques minutes après la fin de l'addition, la solution est filtrée, congelée et lyophilisée.
Another series is described as follows: Solubility in water. Type of series: physicochemical. An excerpt:
La nitrofurantoïne ou N-(5-nitro-2-fur furylidène)-1-aminohydantoïne est un médicament, bien connu, utilisé notamment comme agent antiseptique des voies urinaires. […] Afin de pallier à cet inconvénient, différentes formes cristallines ont été développées avec peu de succès. Des sels de métaux alcalins de nitrofurantoine ont également été réalisés mais ceux-ci, bien que solubles, présentent l'inconvénient d'apporter avec eux, des ions alcalins qui sont souvent contre- indiqués, notamment lors des traitements au long cours chez les sujets soumis à un régime désodé.

Another series can be described thus: in vivo. The following applies: po, dose létale pour 50% des animaux. The source says:
La toxicité de la nitrofurantoïne est connue pour donner des résultats variables suivant les caractéristiques du produit utilisé, notamment la taille des cristaux.

A value given as a limit tells only on which side of the number the result lay.

Turning to `O=C1CN(/N=C/c2ccc([N+](=O)[O-])o2)C(=O)N1` [nitrofurantoïne, N-(5-nitro-2-furfurylidène)-1-aminohydantoïne], the “pKa en solution aqueuse” value in series [1] is given as ~7,2. In series [2], the “soluble dans l'eau” value is on record as 19 mg/100 ml.
Turning to `O=C1CN(N=Cc2ccc([N+](=O)[O-])o2)C(=O)N1` [Exemple 1], the “pH d'une solution à 10% dans l'eau” value in series [3] is 8,9 - 9,5. In addition, the solubility in the series “Solubility in water” (20°C, read-out: solubilité dans l'eau à 20°C) is above 300 mg/mL. In addition, the “solubilité dans l'eau (result in words)” value in the series “Solubility in water” (qualitative) is reported as “instantanément soluble dans l'eau”.
As to `O=C1CN(N=Cc2ccc([N+](=O)[O-])o2)C(=O)N1` [Exemple 2], the LD50 amounted to 960 mg/kg in the series “in vivo” (mouse); 530 mg/kg in “in vivo” (mouse, en nitrofurantoïne pure); 1910 mg/kg in “in vivo” (rat); 1050 mg/kg in “in vivo” (rat, en nitrofurantoine pure).
